Assay results as given in patent US20040259833A1 (priority 1999, published 2004).
Like-named read-outs stand apart in the source and are kept apart here.

How the values were obtained:
[1] = system: bacterial cells expressing an adenine DNA methyltransferase; assay type: cell-based
[2] = target: adenine DNA methyltransferase (Caulobacter vibrioides (Caulobacter crescentus), UniProt P0CAW2); assay type: biochemical
Helicobacter pylori = assay type: cell-based; conditions: read-out: IC50, cell growth inhibition
Bacillus subtilis = experiment: microbe, parasite or virus in culture; assay type: cell-based
[3] = target: dcm methyltransferase (HhaI) (Haemophilus parahaemolyticus, UniProt P05102); assay type: biochemical, Hemophilus hemolyticus; conditions: at 500 μM
dam methylase (E. coli) = dam methylase (E. coli) (Escherichia coli, UniProt P0AEE8); assay type: biochemical; conditions: at 100 μM
Caulobacter cresentus = experiment: microbe, parasite or virus in culture; assay type: cell-based
[4] = system: Agrobacterium tumefaciens; assay type: cell-based; conditions: read-out: IC50, cell growth inhibition
[5] = read-out: IC50, cell growth inhibition
[6] = Caulobacter, read-out: IC50, Caulobacter cresentus
[7] = Bacillus subtilis, read-out: IC50, Bacillus subtilis

dam methylase (E. coli), sequence (P0AEE8 whole entry): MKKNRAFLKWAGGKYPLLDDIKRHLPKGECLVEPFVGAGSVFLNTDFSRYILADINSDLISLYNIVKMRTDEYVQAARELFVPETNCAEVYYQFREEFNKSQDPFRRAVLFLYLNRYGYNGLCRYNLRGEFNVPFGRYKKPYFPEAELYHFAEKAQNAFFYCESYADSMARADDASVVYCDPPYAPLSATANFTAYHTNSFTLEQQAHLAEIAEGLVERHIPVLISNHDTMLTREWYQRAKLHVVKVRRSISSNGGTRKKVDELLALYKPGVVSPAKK
dcm methyltransferase (HhaI), sequence (P05102 whole entry): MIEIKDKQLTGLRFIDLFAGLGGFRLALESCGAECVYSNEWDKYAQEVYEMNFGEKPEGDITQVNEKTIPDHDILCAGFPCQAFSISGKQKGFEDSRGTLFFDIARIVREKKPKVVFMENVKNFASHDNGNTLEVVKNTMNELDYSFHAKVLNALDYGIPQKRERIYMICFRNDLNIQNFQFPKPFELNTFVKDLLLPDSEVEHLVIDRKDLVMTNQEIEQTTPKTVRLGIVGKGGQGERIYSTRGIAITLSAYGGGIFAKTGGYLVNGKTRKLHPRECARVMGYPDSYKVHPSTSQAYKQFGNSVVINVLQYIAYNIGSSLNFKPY
adenine DNA methyltransferase, sequence (P0CAW2 whole entry): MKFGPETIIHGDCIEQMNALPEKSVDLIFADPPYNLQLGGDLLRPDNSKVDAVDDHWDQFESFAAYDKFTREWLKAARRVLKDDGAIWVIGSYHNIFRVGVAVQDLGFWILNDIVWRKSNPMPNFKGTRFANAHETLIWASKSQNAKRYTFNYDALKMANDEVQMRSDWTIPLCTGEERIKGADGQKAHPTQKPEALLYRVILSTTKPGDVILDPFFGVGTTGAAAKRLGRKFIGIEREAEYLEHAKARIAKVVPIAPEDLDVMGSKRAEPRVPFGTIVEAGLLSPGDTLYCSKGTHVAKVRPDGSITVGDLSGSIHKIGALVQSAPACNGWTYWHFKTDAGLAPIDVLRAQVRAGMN

Molecule	IC50 (Helicobacter pylori) [µM]	IC50 (Bacillus subtilis; [5]) [µM]	inhibition of dcm methyltransferase (HhaI) [3]	inhibition of dam methylase (E. coli) (dam methylase (E. coli))	IC50 (Caulobacter cresentus; [5]) [µM]	IC50 [4] [µM]	IC50 (Caulobacter cresentus; [6]) [µM]	IC50 (Bacillus subtilis; [7]) [µM]	other results
c1ccc(B(OCCNc2ncnc3[nH]cnc23)c2ccccc2)cc1	–	–	–	–	–	–	–	–	concentration that inhibits cell growth [1]: < 50 µM
NCCNc1ncnc2[nH]cnc12 [compound (8)]	–	–	–	–	–	–	–	–	inhibitory activity [2]: relatively low (mM range)
6-N-(diphenylborinic ester)-ethyl-9-(3-(N-phthaloyl)-aminopropyl)-adenine [Compound 3c]	25 to 100	1 to 10	No inhibition at all	Complete inhibition	< 25	25	–	–	–
c1ccc([B-]2(c3ccccc3)Oc3cccc4ccc[n+]2c34)cc1 [(3), diphenylborinic acid 8-hydroxyquiniline ester]	–	–	–	–	–	–	> 100	–	–
Clc1ccc([B-]2(c3ccc(Cl)cc3)Oc3cccc4ccc[n+]2c34)cc1 [(2), di-(p-chlorophenyl)borinic acid 8-hydroxyquiniline ester]	–	–	–	–	–	–	16	7	–
6-N-(diphenylborinic ester)-ethyl-adenine [Compound 3a]	< 25	10 to 50	No inhibition at all	Complete inhibition	< 25	> 100	–	–	–
6-N-(diphenylborinic ester)-ethyl-9-(2-(4-morpholinyl)-ethyl)-adenine [Compound 3b]	< 25	1 to 10	No inhibition at all	Complete inhibition	< 25	25	–	–	–
Fc1ccc([B-]2(c3ccc(F)cc3)Oc3cccc4ccc[n+]2c34)cc1 [(1), di-(p-fluorophenyl)borinic acid 8-hydroxyquiniline ester]	–	–	–	–	–	–	23	14	–
6-N-(diphenylborinic ester)-ethyl-9-(2-(2-(2-hydroxyethoxy)ethoxy)ethyl)-adenine [Compound 3d]	25 to 100	10 to 50	No inhibition at all	Complete inhibition	< 25	< 25	–	–	–
Fc1ccc([B-]2(c3ccc(F)cc3)[NH2+]CCO2)cc1 [(4), di-(p-fluorophenyl)borinic acid ethanolamine ester]	–	–	–	–	–	–	85	34	–
6-N-(diphenylborinic ester)-ethyl-9-(ethyl-2-acrylate)-methyl-adenine [Compound 3e]	25	–	No inhibition at all	Complete inhibition	< 25	< 25	–	–	–
Clc1ccc([B-]2(c3ccc(Cl)cc3)[NH2+]CCO2)cc1 [(5), di-(p-chlorophenyl)borinic acid ethanolamine ester]	–	–	–	–	–	–	17	32	–
